Laboratory results from patent publication US7074190B2, “Non-invasive apparatus system for monitoring drug hepatoxicity and uses thereof” (priority 2002, dated 2006).

Columns and labels:
[1] = tested on: adult dogs; assay: Blood test for drug-induced hepatotoxicity, dog experiment
Procedure: Two adult dogs weighing 12 and 15 kg were used. One (coded A) of them received 500 mg/kg of body weight of acetaminophen oral solution (dissolved in water); and the other one (coded B) received a higher concentration (1,200 mg/kg of body weight) of acetaminophen via subcutaneous injection. After Nembutal was injected and the respirator was put on, the hair on the front legs of the dogs was shaved and a blood pressure waveform sensor was inserted by operation. The waveform of artery blood pressure waveform on brachial position was continuously recorded and analyzed by a computer with a frequency of 100 data per minute. After surgery and before the drug was orally taken or injected, the blood pressure waveform of each dog was measured for two hours as the baseline. After the drug was orally taken or injected, the blood pressure waveform was continuously monitored for analyzing the hepatotoxicity induced by the drug, and blood samples were periodically taken from a tube inserted into the artery for determining the level of hepatotoxicuty.

[2] = tested on: adult dogs; assay: Artery blood pressure waveform analysis before and after taking the drug, dog experiment; format: in vivo
Text: The definition of parameter altered amount is: (the parameter value after taking the drug—the parameter value before taking the drug)/the parameter value before taking the drug *100%

[3] = Code A dog, 500 mg/kg oral, 1 hour after the drug was administered
[4] = Code A dog, 500 mg/kg oral, 6 hours after the drug was administered
[5] = Code A dog, 500 mg/kg oral, 12 hours after the drug was administered
[6] = Code B dog, 1,200 mg/kg subcutaneous injection, 1 hour after the drug was administered
[7] = Code B dog, 1,200 mg/kg subcutaneous injection, 6 hours after the drug was administered
[8] = Code B dog, 1,200 mg/kg subcutaneous injection, 12 hours after the drug was administered
[9] = Code A dog, 500 mg/kg oral, 12 hours after taking the drug
[10] = Code A dog, 500 mg/kg oral, before and after taking the drug (12 hours)
[11] = Code B dog, 1,200 mg/kg subcutaneous injection, 12 hours after taking the drug
[12] = Code B dog, 1,200 mg/kg subcutaneous injection, before and after taking the drug (12 hours)

## CC(=O)Nc1ccc(O)cc1 [acetaminophen]
[1]; [3]
  ALT (SGPT): 25 IU/leter
  ASG (SGOT): 35 IU/leter
  Total biliflavin: 0.3 mg/dL
[1]; [4]
  ALT (SGPT): 23 IU/leter
  ASG (SGOT): 33 IU/leter
  Total biliflavin: 0.2 mg/dL
[1]; [5]
  ALT (SGPT): 24 IU/leter
  ASG (SGOT): 45 IU/leter
  Total biliflavin: 0.2 mg/dL
[1]; [6]
  ALT (SGPT): 33 IU/leter
  ASG (SGOT): 38 IU/leter
  Total biliflavin: 0.2 mg/dL
[1]; [7]
  ALT (SGPT): 37 IU/leter
  ASG (SGOT): 198 IU/leter
  Total biliflavin: 0.2 mg/dL
[1]; [8]
  ALT (SGPT): 47 IU/leter
  ASG (SGOT): 298 IU/leter
  Total biliflavin: 0.2 mg/dL
[1]; Code B dog, 1,200 mg/kg subcutaneous injection, acute poisoning experiment
  biliflavin: does not raise significantly
[1]; Code B dog, 1,200 mg/kg subcutaneous injection, after 12 hours
  ALT: 47 IU/L
[1]; Code B dog, 1,200 mg/kg subcutaneous injection, after 12 hours, baseline 41
  AST (SGOT): 298 IU/liter
[1]; Code B dog, 1,200 mg/kg via subcutaneous injection
  hepatotoxicity shown by blood test results: a certain level of hapatotoxicity
[2]; [9]
  Oblique angle parameter D1 = (Bb-Aa)/ab: D1 = (Bb-Aa)/ab = 92 mmHg/sec.
  Oblique angle parameter D2 = (Bb-Cc)/bc: D2 = (Bb-Cc)/bc = 350 mmHg/sec.
  Oblique angle parameter D3 = (Dd-Cc)/cd: D3 = (Dd-Cc)/cd = 420 mmHg/sec.
  Oblique angle parameter D4 = (Dd-Ee)/de: D4 = (Dd-Ee)/de = 110 mmHg/sec.
  Oblique angle parameter D5 = D1 + D2: D5 = D1 + D2 = 1270 mmHg/sec.
  Oblique angle parameter D6 = D3 + D4: D6 = D3 + D4 = 530 mmHg/sec.
  Pressure parameter P1 = Aa: P1 = Aa = 149 mmHg
  Pressure parameter P2 = Bb: P2 = Bb = 195 mmHg
  Pressure parameter P3 = Cc: P3 = Cc = 156 mmHg
  Pressure parameter P4 = Dd: P4 = Dd = 173 mmHg
  Pressure parameter P5 = Ee: P5 = Ee = 149 mmHg
  Ratio parameter RA1 = A6/A5: RA1 = A6/A5 = 1.46
  Ratio parameter RA2 = A5/A7: RA2 = A5/A7 = 0.41
  Ratio parameter RA3 = A6/A7: RA3 = A6/A7 = 0.59
  Ratio parameter RP1 = Dd/Bb: RP1 = Dd/Bb = 0.89
  Ratio parameter RT1 = ab/ae: RT1 = ab/ae = 0.12
  Ratio parameter RT2 = ac/ae: RT2 = ac/ae = 0.40
  Ratio parameter RT3 = ad/ae: RT3 = ad/ae = 0.49
  Superficial measure parameter A1 = AabB: A1 = AabB = 9 sec. * mmHg
  Superficial measure parameter A2 = BbcC: A2 = BbcC = 19 sec. * mmHg
  Superficial measure parameter A3 = CcdD: A3 = CcdD = 7 sec. * mmHg
  Superficial measure parameter A4 = DdeE: A4 = DdeE = 34 sec. * mmHg
  Superficial measure parameter A5 = A1 + A2: A5 = A1 + A2 = 28 sec. * mmHg
  Superficial measure parameter A6 = A3 + A4: A6 = A3 + A4 = 41 sec. * mmHg
  Superficial measure parameter A7 = A5 + A6: A7 = A5 + A6 = 69 sec. * mmHg
  Time parameter T1 = ab: T1 = ab = 0.05 second
  Time parameter T2 = bc: T2 = bc = 0.11 second
  Time parameter T3 = cd: T3 = cd = 0.04 second
  Time parameter T4 = de: T4 = de = 0.21 second
  Time parameter T5 = ae: T5 = ae = 0.41 second
[2]; [10]
  Pressure parameter Altered amount P1 = Aa: P1 = Aa = 0.7 mmHg
  Pressure parameter Altered amount P2 = Bb: P2 = Bb = 1.0 mmHg
  Pressure parameter Altered amount P3 = Cc: P3 = Cc = 1.3 mmHg
  Pressure parameter Altered amount P4 = Dd: P4 = Dd = 2.4 mmHg
  Pressure parameter Altered amount P5 = Ee: P5 = Ee = 0.7 mmHg
  Ratio parameter Altered amount RA1 = A6/A5: RA1 = A6/A5 = 12.3
  Ratio parameter Altered amount RA2 = A5/A7: RA2 = A5/A7 = −6.8
  Ratio parameter Altered amount RA3 = A6/A7: RA3 = A6/A7 = 5.3
  Ratio parameter Altered amount RP1 = Dd/Bb: RP1 = Dd/Bb = 9.2
  Ratio parameter Altered amount RT1 = ab/ae: RT1 = ab/ae = −25.0
  Ratio parameter Altered amount RT2 = ac/ae: RT2 = ac/ae = −5.0
  Ratio parameter Altered amount RT3 = ad/ae: RT3 = ad/ae = −11.0
  Superficial measure parameter Altered amount A1 = AabB: Al = AabB = −10.0 sec. * mmHg
  Superficial measure parameter Altered amount A2 = BbcC: A2 = BbcC = 11.8 sec. * mmHg
  Superficial measure parameter Altered amount A3 = CcdD: A3 = CcdD = −12.5 sec. * mmHg
  Superficial measure parameter Altered amount A4 = DdeE: A4 = DdeE = 25.9 sec. * mmHg
  Superficial measure parameter Altered amount A5 = A1 + A2: A5 = A1 + A2 = 3.7 sec. * mmHg
  Superficial measure parameter Altered amount A6 = A3 + A4: A6 = A3 + A4 = 17.1 sec. * mmHg
  Superficial measure parameter Altered amount A7 = A5 + A6: A7 = A5 + A6 = 11.3 sec. * mmHg
  Time parameter Altered Amount T2 = bc: T2 = bc = 10.0 second
  Time parameter Altered Amount T3 = cd: T3 = cd = −20.0 second
  Time parameter Altered Amount T4 = de: T4 = de = 23.5 second
  Time parameter Altered Amount T5 = ae: T5 = ae = 7.9 second
  Time parameter Altered amount T1 = ab: T1 = ab = −16.7 second
  oblique angle parameter Altered amount D1 = (Bb-Aa)/ab: D1 = (Bb-Aa)/ab = 22.7 mmHg/sec.
  oblique angle parameter Altered amount D2 = (Bb-Cc)/bc: D2 = (Bb-Cc)/bc = −10.2 mmHg/sec.
  oblique angle parameter Altered amount D3 = (Dd-Cc)/cd: D3 = (Dd-Cc)/cd = 40.0 mmHg/sec.
  oblique angle parameter Altered amount D4 = (Dd-Ee)/de: D4 = (Dd-Ee)/de = −8.3 mmHg/sec.
  oblique angle parameter Altered amount D5 = D1 + D2: D5 = D1 + D2 = 11.4 mmHg/sec.
  oblique angle parameter Altered amount D6 = D3 + D4: D6 = D3 + D4 = 26.2 mmHg/sec.
[2]; Code A dog, 500 mg/kg oral, before vs 12 hours after taking the drug, all other parameters lower
  highest altered amount (oblique angle parameter): 40%
[2]; Code A dog, 500 mg/kg oral, before vs after taking the drug for 12 hours (FIG. 5 vs FIG. 6)
  difference between the blood pressure waveforms before and after taking the drug: no significant difference
[2]; [11]
  Oblique angle parameter D1 = (Bb-Aa)/ab: D1 = (Bb-Aa)/ab = 2250 mmHg/sec.
  Oblique angle parameter D2 = (Bb-Ee)/be: D2 = (Bb-Ee)/be = 1383 mmHg/sec.
  Oblique angle parameter D3 = (Ff-Ee)/ef: D3 = (Ff-Ee)/ef = 420 mmHg/sec.
  Oblique angle parameter D4 = (Ff-Gg)/fg: D4 = (Ff-Gg)/fg = 311 mmHg/sec.
  Oblique angle parameter D5 = D1 + D2: D5 = D1 + D2 = 3633 mmHg/sec.
  Oblique angle parameter D6 = D3 + D4: D6 = D3 + D4 = 731 mmHg/sec.
  Pressure parameter P1 = Aa: P1 = Aa = 16 mmHg
  Pressure parameter P2 = Bb: P2 = Bb = 106 mmHg
  Pressure parameter P3 = Ee: P3 = Ee = 23 mmHg
  Pressure parameter P4 = Ff: P4 = Ff = 44 mmHg
  Pressure parameter P5 = Gg: P5 = Gg = 16 mmHg
  Ratio parameter RA1 = A6/A5: RA1 = A6/A5 = 0.87
  Ratio parameter RA2 = A5/A7: RA2 = A5/A7 = 0.53
  Ratio parameter RA3 = A6/A7: RA3 = A6/A7 = 0.47
  Ratio parameter RP1 = Ff/Bb: RP1 = Ff/Bb = 0.42
  Ratio parameter RT1 = ab/ag: RT1 = ab/ag = 0.17
  Ratio parameter RT2 = ae/ag: RT2 = ae/ag = 0.42
  Ratio parameter RT3 = af/ag: RT3 = af/ag = 0.63
  Superficial measure parameter A1 = AabB: A1 = AabB = 2.44 sec. * mmHg
  Superficial measure parameter A2 = BbeE: A2 = BbeE = 2.58 sec. * mmHg
  Superficial measure parameter A3 = EefF: A3 = EefF = 1.68 sec. * mmHg
  Superficial measure parameter A4 = FfgG: A4 = FfgG = 2.70 sec. * mmHg
  Superficial measure parameter A5 = A1 + A2: A5 = A1 + A2 = 5.02 sec. * mmHg
  Superficial measure parameter A6 = A3 + A4: A6 = A3 + A4 = 4.38 sec. * mmHg
  Superficial measure parameter A7 = A5 + A6: A7 = A5 + A6 = 9.40 sec. * mmHg
  Time parameter T1 = ab: T1 = ab = 0.04 second
  Time parameter T2 = be: T2 = be = 0.06 second
  Time parameter T3 = ef: T3 = ef = 0.05 second
  Time parameter T4 = fg: T4 = fg = 0.09 second
  Time parameter T5 = ag: T5 = ag = 0.24 second
[2]; Code B dog, 1,200 mg/kg subcutaneous injection, TABLE 8
  number of parameter altered amounts exceeding 100%: six
[2]; [12]
  Oblique angle parameter Altered amount D2 = (Bb-Ee)/be: D2 = (Bb-Ee)/be = 349%
  Oblique angle parameter Altered amount D3 = (Ff-Ee)/ef: D3 = (Ff-Ee)/ef = 23%
  Oblique angle parameter Altered amount D4 = (Ff-Gg)/fg: D4 = (Ff-Gg)/fg = 677%
  Pressure parameter Altered amount P1 = Aa: P1 = Aa = −85%
  Pressure parameter Altered amount P2 = Bb: P2 = Bb = −25%
  Pressure parameter Altered amount P3 = Ee: P3 = Ee = −79%
  Pressure parameter Altered amount P4 = Ff: P4 = Ff = −65%
  Pressure parameter Altered amount P5 = Gg: P5 = Gg = −85%
  Ratio parameter Altered amount RA1 = A6/A5: RA1 = A6/A5 = 123%
  Ratio parameter Altered amount RA2 = A5/A7: RA2 = A5/A7 = 89%
  Ratio parameter Altered amount RA3 = A6/A7: RA3 = A6/A7 = −35%
  Ratio parameter Altered amount RP1 = Ff/Bb: RP1 = Ff/Bb = −51%
  Ratio parameter Altered amount RT1 = ab/ag: RT1 = ab/ag = 143%
  Ratio parameter Altered amount RT2 = ae/ag: RT2 = ae/ag = 55%
  Ratio parameter Altered amount RT3 = af/ag: RT3 = af/ag = 85%
  Superficial measure parameter Altered amount A1 = AabB: A1 = AabB = −62%
  Superficial measure parameter Altered amount A2 = BbeE: A2 = BbeE = −85%
  Superficial measure parameter Altered amount A3 = EefF: A3 = EefF = −72%
  Superficial measure parameter Altered amount A4 = FfgG: A4 = FfgG = −95%
  Superficial measure parameter Altered amount A5 = A1 + A2: A5 = A1 + A2 = −47%
  Superficial measure parameter Altered amount A6 = A3 + A4: A6 = A3 + A4 = −61%
  Superficial measure parameter Altered amount A7 = A5 + A6: A7 = A5 + A6 = −84%
  Time parameter Altered amount T1 = ab: T1 = ab = −20%
  Time parameter Altered amount T2 = be: T2 = be = −54%
  Time parameter Altered amount T3 = ef: T3 = ef = 0%
  Time parameter Altered amount T4 = fg: T4 = fg = −80%
  Time parameter Altered amount T5 = ag: T5 = ag = −64%
  oblique angle parameter Altered amount D1 = (Bb-Aa)/ab: D1 = (Bb-Aa)/ab = 162%
  oblique angle parameter Altered amount D5 = D1 + D2: D5 = D1 + D2 = 211%
  oblique angle parameter Altered amount D6 = D3 + D4: D6 = D3 + D4 = 92%
